Experimental data taken from PMC7746945 (Neuro-Oncology, 2020).

Settings: daily for 42 days, with olaparib 150 mg 3 days/week
Excerpt: Up to 3 cycles were delivered in the absence of disease progression or unacceptable toxicity. Patients progression free after 3 cycles were eligible for further cycles if approved by sponsor. […] Neurosurgical resection was mandatory in the expansion cohort.
If 2 or more of 6 patients at one dose level experienced a dose limiting toxicity (DLT), this was considered “not tolerated” and designated the maximum administered dose (MAD).

Cn1nnc2c(C(N)=O)ncn2c1=O [TMZ, temozolomide]
MTD / RP2D, TMZ dose: 75 mg/m^2
